Results: patent publication US12577214B2, “Polymorphs of bis(fluoroalkyl)-1,4-benzodiazepinone compounds and uses thereof” (Bristol-Myers Squibb Company, priority 2020, dated 2026)
Converted amounts (≈) assume the structure as drawn. Read-outs that look alike come from different tables or passages of the source.

What was measured:
Assay type in all cases: physicochemical
[1] = Form stability on slurrying in aqueous solutions (PXRD); conditions: slurry at RT in FASIF and in HCl (pH=1)
Source text: FIG. 16 depicts PXRD patterns of: P1 form following slurrying thereof in FASIF (fasted state simulated intestinal fluid) (top); in HCl (pH=1) (middle); and of N-2 form (bottom). […] (FIG. 14). […] (FIG. 15).

[2] = Form stability on heating (PXRD); conditions: heating to 270° C.
Experimental: FIG. 1 depicts PXRD patterns of the N-2 form at room temperature (bottom), 165° C. (middle) and 270° C. (top).
The crystal structure for Compound 1 was determined by single crystal X-ray diffraction studies on elongated prismatic crystals grown from THF/heptane. The intermolecular hydrogen-bonding in the N-2 structure is shown in FIGS. 12A-12B; the structure contains small voids of about 20 Å^3. The experimental PXRD pattern for N-2 matches the simulated pattern which confirms the single phase identity of N-2 crystallized in bulk (FIG. 13). […] (FIG. 1).

[3] = Solubility of N-2 in water and solvents
Experimental: N-2 has an aqueous solubility of <1 μg/mL in water.

[4] = Solid state stability of N-2 free base form
Experimental: Solid state stability was conducted only on N-2, at 5° C., 25° C., 40° C./75% RH (open and closed), and 50° C. for up to 4 weeks.

SMILES | Form after slurrying in aqueous solutions [1] | Physical form after heating [2] | solubility ([3]; PEG 400, organic solvent or mixture, read-out: solubility in PEG 400) | solubility ([3]; in water, read-out: aqueous solubility) | Solid state stability (chemical and physical) ([4]; 5° C., 25° C., 40° C./75% RH (open and closed), and 50° C. for up to 4 weeks) | Stability when exposed to high intensity light (HIL)/ultraviolet (UV) light ([4]; HIL/UV light for 7 days)
Cc1cccc2c1NC(=O)[C@@H](NC(=O)[C@H](CCC(F)(F)F)[C@H](CCC(F)(F)F)C(N)=O)N=C2c1cccc(F)c1 [Compound P1] | converts to N-2 | – | – | – | – | –
Cc1cccc2c1NC(=O)[C@@H](NC(=O)[C@H](CCC(F)(F)F)[C@H](CCC(F)(F)F)C(N)=O)N=C2c1cccc(F)c1 [Compound N-2] | – | No physical change in form | ~38 mg/mL (≈ 66.1 mM) | < 0.001 mg/mL | chemically and physically stable | chemically and physically stable
